Source: patent publication US10981932B2, “Macrocyclic indole derivatives” (Bayer Aktiengesellschaft, priority 2016, dated 2021)
Counter-ions that a name gives are not always drawn. Like-named read-outs stand apart in the source and are kept apart here. Each block holds one compound with its values, some of them ahead of it.

Legend:
[1] = rcm bond, Grubbs 2nd generation catalyst, dichloromethane, 25.0 °C
[2] = test system: A2780; experiment: Anti-proliferative effect (CellTiter-Glo, 72 h), A2780; format: cell-based; details: A2780 cells, median, read-out: IC50 antiproliferation assay A2780 [M] (median)
Outline: (§1)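 CTG luminescence read-out after 72 h compound exposure, 37 °C, humidified. Time-zero reference plate read at plating.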

[3] = test system: SUDHL10; experiment: Induction of cytotoxicity (CellTiter-Glo, 5 h), SUDHL10
[4] = test system: SUDHL5; experiment: Induction of caspase-3/7 activity (Caspase-Glo 3/7), SUDHL5; format: cell-based; details: caspase-3/7 induction, SUDHL5 cells, 3 h treatment; median
Outline: (§2)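 Caspase-Glo 3/7 luminescence, 3 h compound exposure, 37 °C, humidified. Minus medium-only blank. EC50 fit: C0=1, plateau = reference max induction.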

[5] = molecular target: MCL-1 (Homo sapiens, UniProt Q07820); experiment: Protein-protein interaction assay MCL-1/Noxa BH3 peptide (MCL-1 assay), TR-FRET; format: binding; details: MBP-MCL-1 / Noxa BH3-derived peptide, median
Chain of MCL-1 (Q07820 whole entry): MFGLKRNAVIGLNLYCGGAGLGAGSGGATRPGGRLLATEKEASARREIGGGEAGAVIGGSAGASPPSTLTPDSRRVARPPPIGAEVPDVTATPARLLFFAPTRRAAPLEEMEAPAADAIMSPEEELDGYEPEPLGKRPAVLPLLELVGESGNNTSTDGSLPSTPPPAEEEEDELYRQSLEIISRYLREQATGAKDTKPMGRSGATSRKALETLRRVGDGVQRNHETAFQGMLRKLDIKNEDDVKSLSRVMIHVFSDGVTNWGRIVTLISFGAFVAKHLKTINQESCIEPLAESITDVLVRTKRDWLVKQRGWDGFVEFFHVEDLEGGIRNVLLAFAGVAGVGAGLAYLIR
Outline: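 Displacement of the biotinylated Noxa BH3 peptide from MBP-tagged human MCL-1 (1 nM) is detected by time-resolved FRET. Compounds are tested in duplicate across eleven concentrations up to 20 μM, incubated 1 h at 22 °C and overnight at 4 °C, and IC50 is fitted with a four-parameter equation.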

[6] = test system: SUDHL10; experiment: Anti-proliferative effect (CellTiter-Glo, 72 h), SUDHL10; format: cell-based; details: SUDHL10 cells, antiproliferation, 72 h incubation, median, read-out: Antiproli SUDHL10 [M] (median)
Outline: as §1

[7] = test system: OPM2; experiment: Anti-proliferative effect (CellTiter-Glo, 72 h), OPM2; format: cell-based; details: OPM2 cells, median, read-out: IC50 antiproliferation assay OPM2 [M] (median)
Outline: as §1

[8] = test system: SUDHL10; experiment: Induction of caspase-3/7 activity (Caspase-Glo 3/7), SUDHL10; format: cell-based; details: caspase-3/7 induction, SUDHL10 cells, 3 h treatment; median
Outline: as §2

[9] = test system: SUDHL5; experiment: Anti-proliferative effect (CellTiter-Glo, 72 h), SUDHL5; format: cell-based; details: SUDHL5 cells, antiproliferation, 72 h incubation, median, read-out: Antiproli SUDHL5 [M] (median)
Outline: as §1

[10] = test system: SUDHL5; experiment: Induction of cytotoxicity (CellTiter-Glo, 5 h), SUDHL5; details: read-out: Cytotox SUDHL5 [M] (median); SUDHL5 cells, cytotoxicity induction, CellTiter-Glo, 5 h incubation, median
[11] = test system: MV-4-11; experiment: Anti-proliferative effect (CellTiter-Glo, 72 h), MV-4-11; format: cell-based; details: MV-4-11 cells, median, read-out: IC50 antiproliferation assay MV-4-11 [M] (median)
Outline: as §1

[12] = read-out: Cytotox SUDHL10 [M] (median), SUDHL10 cells, cytotoxicity induction, CellTiter-Glo, 5 h incubation, median

SMILES: CCOC(=O)c1c(CCCOc2cccc3ccccc23)c2cccc3c2n1CC=CCOCc1c-3c(COc2ccc(C3(OC)CCOCC3)cc2)nn1C (mixture of isomers)
ring closure, yield of all isomers ([1]; from C=CCOCc1c(-c2cccc3c(CCCOc4cccc5ccccc45)c(C(=O)OCC)n(CC=C)c23)c(COc2ccc(C3(OC)CCOCC3)cc2)nn1C, 78.4 mM, 72.0 h): 39.1%

SMILES: CCOC(=O)c1c(CCCOc2cccc3ccccc23)c2cccc3c2n1CC=CCOCc1c-3cnn1C (mixture of isomers)
ring closure, yield of all isomers ([1]; from C=CCOCc1c(-c2cccc3c(CCCOc4cccc5ccccc45)c(C(=O)OCC)n(CC=C)c23)cnn1C, 78.2 mM, 24.0 h): 42.1%

SMILES: CCOC(=O)c1c(CCCOc2cccc3ccccc23)c2cccc3c2n1CC=CCOCCc1c-3c(C)nn1C (mixture of isomers)
ring closure, yield of all isomers ([1]; from C=CCOCCc1c(-c2cccc3c(CCCOc4cccc5ccccc45)c(C(=O)OCC)n(CC=C)c23)c(C)nn1C, 50.9 mM, 48.0 h): 47.5%

SMILES: CCOC(=O)c1c(CCCOc2cccc3ccccc23)c2cccc3c2n1CC=CCOCc1c-3c(COCc2ccccc2)nn1C (mixture of isomers)
ring closure, yield of all isomers ([1]; from C=CCOCc1c(-c2cccc3c(CCCOc4cccc5ccccc45)c(C(=O)OCC)n(CC=C)c23)c(COCc2ccccc2)nn1C, 76.8 mM, 72.0 h): 74.2%

SMILES: CCOC(=O)c1c(CCCOc2cccc3ccccc23)c2cccc3c2n1CC=CCOCc1c-3c(COc2ccc(N3CCOCC3)cc2)nn1C (mixture of isomers)
ring closure, yield of all isomers ([1]; from C=CCOCc1c(-c2cccc3c(CCCOc4cccc5ccccc45)c(C(=O)OCC)n(CC=C)c23)c(COc2ccc(N3CCOCC3)cc2)nn1C, 39.1 mM, 44.0 h): 53.3%

SMILES: CCOC(=O)c1c(CCCOc2cccc3ccccc23)c2cccc3c2n1CC=CCOCc1c-3c(COc2ccc(C3(O)CCOCC3)cc2)nn1C (mixture of isomers)
ring closure, yield of all isomers ([1]; from C=CCOCc1c(-c2cccc3c(CCCOc4cccc5ccccc45)c(C(=O)OCC)n(CC=C)c23)c(COc2ccc(C3(O)CCOCC3)cc2)nn1C, 80.0 mM, 72.0 h): 66.1%

SMILES: CCOC(=O)c1c(CCCOc2cccc3ccccc23)c2cccc3c2n1CC=CCOCc1nn(C)c(C)c1-3 (mixture of isomers)
ring closure, yield of all isomers ([1]; from C=CCOCc1nn(C)c(C)c1-c1cccc2c(CCCOc3cccc4ccccc34)c(C(=O)OCC)n(CC=C)c12, 77.8 mM, 16.0 h): 15%

SMILES: CCOC(=O)c1c(CCCOc2cccc3ccccc23)c2cccc3c2n1CC=CCOCc1c-3c(CN2CCOCC2)nn1C (mixture of isomers)
ring closure, yield of all isomers ([1]; from C=CCOCc1c(-c2cccc3c(CCCOc4cccc5ccccc45)c(C(=O)OCC)n(CC=C)c23)c(CN2CCOCC2)nn1C, 79.5 mM, 48.0 h): 14.2%

SMILES: CCOC(=O)c1c(CCCO[Si](C)(C)C(C)(C)C)c2cccc3c2n1CC=CCOCc1c-3c(C)nn1C (mixture of isomers)
ring closure, yield of all isomers ([1]; from C=CCOCc1c(-c2cccc3c(CCCO[Si](C)(C)C(C)(C)C)c(C(=O)OCC)n(CC=C)c23)c(C)nn1C, 48.0 mM, 16.0 h): 52.7%

IC50 [2]: 6.23e-06 M
EC50 [4]: 3.88 µM
IC50 [5]: 0.0068 µM
IC50 [6]: 3.83e-06 M
EC50 [8]: 4.47 µM
IC50 [9]: 3.21e-06 M
IC50 [11]: 1.57e-06 M
SMILES: COc1ccccc1-c1ncc(OCc2nn(C)c3c2-c2cccc4c(CCCOc5cccc6ccccc56)c(C(=O)O)n(c24)CCCN(C)C3)cn1 (single isomer, unassigned) [Example 1-92, 11-({[2-(2-methoxyphenyl)pyrimidin-5-yl]oxy}methyl)-7,9-dimethyl-1-[3-(naphthalen-1-yloxy)propyl]-4,5,6,7,8,9-hexahydropyrazolo[3′,4′:7,8][1,5]diazecino[9,10,1-hi]indole-2-carboxylic acid-N-ethylethanamine Salt]
IC50 [3, 12]: 5.77e-06 M
IC50 [7]: 9.6e-06 M
IC50 [10]: 2.9e-06 M

SMILES: CCOCc1nn(C)c2c1-c1cccc3c(CCCOc4cccc5ccccc45)c(C(=O)OCC)n(c13)CC=CCOC2 (mixture of isomers)
ring closure, yield of all isomers ([1]; from C=CCOCc1c(-c2cccc3c(CCCOc4cccc5ccccc45)c(C(=O)OCC)n(CC=C)c23)c(COCC)nn1C, 76.0 mM, 24.0 h): 47.3%

IC50 ([2]; Homo sapiens, A2780, 72 h): 3.95e-06 M
EC50 [4]: 21.6 µM
IC50 [5]: 0.0368 µM
IC50 ([6]; Homo sapiens, SU-DHL10, 72 h): 1.93e-06 M
EC50 [8]: > 33 µM
IC50 ([9]; Homo sapiens, SU-DHL-5, 72 h): 5.8e-06 M
IC50 ([11]; Homo sapiens, MV4-11, 72 h): 4.94e-06 M
SMILES: CN(C)S(=O)(=O)N1CCN(c2ccc(OCc3nn(C)c4c3-c3cccc5c(CCCOc6cccc7ccccc67)c(C(=O)O)n(c35)CCCCCC4)cc2)CC1 (single isomer, unassigned; enantiomer 1) [Example 1-40, 3-({4-[4-(dimethylsulfamoyl)piperazin-1-yl]phenoxy}methyl)-1-methyl-7-[3-(naphthalen-1-yloxy)propyl]-10,11,12,13,14,15-hexahydro-1H-pyrazolo[4′,3′:4,5]azacycloundecino[3,2,1-hi]indole-8-carboxylic acid-N-ethylethanamine Salt (Enantiomer 1)]
IC50 [3, 12]: 2.3e-05 M
IC50 [7]: 5.38e-06 M
IC50 [10]: 1.69e-05 M

SMILES: CCOC(=O)c1c(CCCOc2cccc3ccccc23)c2cccc3c2n1CC=CCOCc1c-3c(COC(C)C)nn1C
ring closure, yield of all isomers ([1]; from C=CCOCc1c(-c2cccc3c(CCCOc4cccc5ccccc45)c(C(=O)OCC)n(CC=C)c23)c(COC(C)C)nn1C, 77.5 mM, 24.0 h): 89.2%

IC50 ([2]; Homo sapiens, A2780, 72 h): 2.31e-05 M
EC50 [4]: 20.4 µM
IC50 [5]: 0.0542 µM
IC50 ([6]; Homo sapiens, SU-DHL10, 72 h): 9.58e-06 M
EC50 [8]: 18.8 µM
IC50 [9]: 1.22e-05 M
IC50 ([11]; Homo sapiens, MV4-11, 72 h): 1.21e-05 M
SMILES: CN1CCCn2c(C(=O)O)c(CCCOc3cccc4ccccc34)c3cccc(c32)-c2c(COc3ccc(S(C)(=O)=O)cc3)nn(C)c2C1 (single isomer, unassigned) [Example 1-49, (−)-7,9-dimethyl-11-{[4-(methylsulfonyl)phenoxy]methyl}-1-[3-(naphthalen-1-yloxy)propyl]-4,5,6,7,8,9-hexahydropyrazolo[3′,4′:7,8][1,5]diazecino[9,10,1-hi]indole-2-carboxylic Acid]
IC50 ([3]; Homo sapiens, SU-DHL10, 5 h, read-out: Cytotox SUDHL10 [M] (median), SUDHL10 cells, cytotoxicity induction, CellTiter-Glo, 5 h incubation, median): 2.5e-05 M
IC50 [7]: > 3.3e-05 M
IC50 [10]: 3.3e-05 M

IC50 ([2]; Homo sapiens, A2780, 72 h): 2.26e-05 M
EC50 [4]: 31 µM
IC50 [5]: 0.281 µM
IC50 ([6]; Homo sapiens, SU-DHL10, 72 h): 7.55e-06 M
EC50 [8]: > 33 µM
IC50 ([9]; Homo sapiens, SU-DHL-5, 72 h): 1.25e-05 M
IC50 ([11]; Homo sapiens, MV4-11, 72 h): 7.75e-06 M
SMILES: Cn1nc(COc2ccc(S(C)(=O)=O)cc2)c2c1COCC=CCn1c(C(=O)O)c(CCCOc3cccc4ccccc34)c3cccc-2c31 (single isomer, unassigned) [Example 1-52, (E/Z)-1-methy-3-{[4-(methylsulfonyl)phenoxy]methyl}-7-[3-(naphthalen-1-yloxy)propyl]-1,10,13,15-tetrahydropyrazolo[4′,3′:9,10][1,6]oxazacycloundecino[8,7,6-hi]indole-8-carboxylic Acid]
IC50 [3, 12]: 2.71e-05 M
IC50 ([7]; Homo sapiens, OPM-2, 72 h): 3.2e-05 M
IC50 [10]: 3.15e-05 M

IC50 [2]: 6.24e-06 M
EC50 [4]: 2.52 µM
IC50 [5]: 0.00151 µM
IC50 [6]: 1.02e-06 M
EC50 [8]: 2.62 µM
IC50 [9]: 7.67e-07 M
IC50 ([11]; Homo sapiens, MV4-11, 72 h): 7.2e-07 M
SMILES: CCN(CC)S(=O)(=O)N1CCN(c2ccc(OCc3nn(C)c4c3-c3cccc5c(CCCOc6cccc7ccccc67)c(C(=O)O)n(c35)CCCCOC4)cc2)CC1 (single isomer, unassigned; enantiomer 2) [Example 1-5, 3-({4-[4-(diethysulfamoyl)piperazin-1-yl]phenoxy}methyl)-1-methyl-7-[3-(naphthalen-1-yloxy)propyl]-1,10,11,12,13,15-hexahydropyrazolo[4′,3′:9,10][1,6]oxazacycloundecino[8,7,6-hi]indole-8-carboxylic Acid (Enantiomer 2)]
IC50 [3, 12]: 4.77e-06 M
IC50 [7]: 1.13e-06 M
IC50 [10]: 3.2e-06 M
